# Source: US6528049B2, “Bisexual attractants, aggregants and arrestants for adults and larvae of codling moth and other species of lepidoptera” (Trece, Inc., priority 1999, dated 2003)
# Several values for one entry are separate records, joined by “and”; a condition that tells them apart may be missing. Equal entries are not always repeated.
# Tests used:
# Assay type in all cases: in vivo, Cydia pomonella
# [1] = system: codling moth; test: Field study of individual alcohols, aldehydes and esters; conditions: individual compounds typically of purity 90-98%
# Source text: Attractive activity of these compounds for male and female codling moth was compared to purified ethyl (2E,4Z)-2,4-decadienoate.
# When the cumulative evaluation of all studied compounds and/or blends containing aldehyde, alcohol, ester and terpene compounds was made, the following results clearly confirmed the findings seen in Table 3.
# [2] = system: codling moth; test: Inherent attractancy field test of HPV blends in baited sticky traps in walnut orchard
# Experimental: The blends listed in Table 2 were then field tested in walnut orchards for their attractancy to male and female codling moths, and also for enhancement with synthetic codling moth pheromone and other additives identified above. Their total capture (both males and females), and their individual male and female capture were determined and results obtained, were compared to insect capture obtained with purified individual ester, compound #25 namely ethyl (2E,4Z)-2,4-decadienoate, and to the codling moth male sex pheromone compound #26 in Table 3.
# Individual blends containing representative aldehyde, alcohol, ester, monoterpene or sesquiterpene blends were provided in the traps in 10 mg/white septa.
# Individual host-plant volatile (HPV) blends identified by the #1-23 in Table 3 were tested for codling moth attractancy in a walnut orchard, and the results were compared to the isolated purified ethyl (2E,4Z)-2,4-decadienoate (#25), to pheromone (#26) and to solvent controls (#24).
# Twenty-five HPV blends and eight individual compounds were field tested. One synthetic blend, “ester blend #10,” elicited excellent codling moth attraction. In field tests, the other tested blends (see Table 3) and compounds captured no moths over a three month period, except for an “apple-skin surface extract” (Golden Delicious, ether solvent) (Σ=3 codling moth captured, 1♂: 2♀♀) and the individual compound, (E,E)-α-farnesene (Σ=1♂ codling moth captured). The field tests are presented in Table 3 and show attraction specificity for HPV ester blend #10.
# (§1) Sticky traps (ICP and IIB traps, Trécé, Inc. Salinas, Calif.) were baited with either extracts, blends of HPVs, or individual HPVs (>95% purity) that evaporated from impregnated rubber septa. HPV blends, or individual HPV compounds, were diluted in hexane and pipetted onto rubber septa at approximate doses of 10 mg/septum. A single treatment septum was placed in each sticky wing-trap, and hung approximately six meters high in the outer walnut canopy. Trap liners and treatment HPV septa were replaced every 10-14 days and pheromone septa every month and tests were conducted throughout two summers.
# (§2) A replicated series of different HPV treatment traps, control “blank” (unbaited) trap, and a commercial pheromone-baited trap (Trécé, Inc.) were distributed 5 trees apart throughout two distant Hartley walnut orchards and validated in 12 walnut orchards. The orchards were distinct, with one using three summer insecticide sprays and the other had no spraying. Thus, these test orchards had low vs. moderate relative populations of codling moths. Significant effects on the gender of codling moths captured were judged by paired tests, either T-test or a nonparametric test.
# [3] = system: codling moth; test: Trap capture with purified (2E,4E) and (2E,4Z) 2,4-decadienoic acid esters; conditions: 1 mg dose/gray septum; four orchards; means of 21 trap checks
# Experimental: In this study, test compounds were highly purified synthetic samples. The purities of the compounds are expressed as percentages. Individual traps were baited with 1 mg dose/gray septum; five replicate blocks in four orchards; means of 21 total trap checks.
# [4] = system: codling moth; test: Trap capture with proportional mixes of ethyl 2,4-decadienoate isomers; conditions: 1 mg dose/gray septum
# Experimental: Additionally, studies were performed to determine the attraction of codling moth to proportional mixes of (2E,4Z) and (2E,4E) isomers of ethyl 2,4-decadienoate and highly purified samples of each. Traps were baited with 1 mg dose/gray septum.
# [5] = system: male codling moth; test: Pheromone preference paired-trap test: pheromone alone vs pheromone + HPV; conditions: Table 8, trap paired with the HPV of the same table line
# Source text: Interaction of synthetic apple and pear odor blends, described above in Table 2, and their effect on the attractancy of synthetic pheromone to codling moth was also studied. For that purpose, series of paired-traps containing pheromone alone or pheromone in combination with synthetic host plant volatile blends were placed in walnut orchards.
# Interaction of individual synthetic host plant volatiles or blends on the attractiveness of synthetic male pheromone to male codling moth administered in paired traps with pheromone alone or with pheromone and attractant 10 mg/red septum was also studied.
# (§3) Pheromone traps (sticky wing traps, Trécé, Inc.,) were hung as pairs: a pheromone only baited-trap vs. a pheromone+HPV blend-baited trap. The two traps of a test pair were attached in close competitive proximity (120 cm apart) on a common hanger bar (PVC pipe). The paired-trap bars were hung 5-6 meters high on the outer canopies of trees. A single pair-trap was hung per tree and different replicate test trees were separated by five rows in a matrix through the orchard. Each pheromone trap was baited with ½ of a commercial pheromone-impregnated rubber septum (Trécé, Inc.). Septa were sectioned by a razor blade. The HPV blends evaporated from their own separate impregnated rubber septa containing 10 mg diluted in hexane/septum).
# (§4) Tests were conducted in a Harley English walnut orchard. Tests spanned the entire two year seasons April-October with traps checked, males sexed, counted and removed every 2-7 days. Significant effect on pheromone trap capture were judged by paired tests either T-test or a nonparametric test.
# [6] = system: codling moth; test: Paired-trap test of pheromone alone vs pheromone + ester blend #10; conditions: for Total Moths Caught: / Mean ± SEM capture of codling moths: Table 11; for Mean ± SEM capture of codling moths: paired traps, Hartley walnut orchard
# Source text: The ability of the HPV ester blend #10 to influence the pheromone attractancy/preference of codling moth was resolved using paired-traps, one trap with a pheromone septum alone and the other trap with a pheromone septum and an ester blend #10 septum. […] Results are seen in Tables 10 and 11, and FIG. 3.
# Table 10 illustrates interaction of pheromone with HPV ester blend #10 on codling moth attraction, when tested in a conventional low-population Hartley walnut orchard. There were 13 traps and 18 trap check dates.
# as §3, §4
# [7] = system: codling moth; test: Septa colour and loading dose trap study; conditions: Ph-L2 pheromone
# Experimental: Since there have been differences observed between traps containing gray, white or red septa, a study was performed to determine the significance of the specific septa and their effect on the increase or decrease of attractancy. […]
# [8] = system: codling moth; test: Ester blend #10-baited vs pheromone-baited sticky traps; conditions: Table 13; baited sticky trap
# Source text: Attraction of female and male codling moths to ester blend #10 in baited sticky trap is seen in FIG. 1. […] Results are numerically expressed in Table 13.
# Table 13 compares two orchard treatments with ester blend #10 and pheromone-only baited sticky traps. […] In the pheromone baited traps, only male insects were captured.
# The female flight pattern depicted by capture in ester blend #10-baited sticky traps was related to the male flight pattern to pheromone-baited traps over the 3 month test period. Results are seen in FIG. 2, which is a comparative graph of codling moth flight patterns delineated by males captured in pheromone traps versus both sexes captured in ester blend #10 traps. […] The male pheromone curve rises sooner and lasts longer per flight, while the female ester blend #10 curve drops off sooner. These temporal-phase shifts of the flight curves represent the earlier and longer emergence of male codling moth for each flight period.
# as §1, §2
# [9] = system: codling moth; test: Rapid-kill liquid traps baited with ester blend #10 or pheromone
# Experimental: Experimental challenge to this question was to use a novel, funnel-liquid-jar-trap (“rapid-kill liquid traps”) to rapidly kill (drown) attracted moths. […] Again, it was the females who were predominantly captured (sex ratio: 1♂:3.0♀♀ insect attracted).
# Again, females were preferentially attracted (3:1 ratio) to ester blend #10 rapid kill liquid traps, while only males were seen to be attracted to the pheromone traps.
# A second series of inherent attractancy tests were conducted on the most-active HPV blend (ester blend #10) using a novel, funnel-liquid (50:50 water and antifreeze) jar-trap adapted from a prototype of Trece, Inc., to rapidly kill (drown) attracted moths (“rapid-kill liquid traps”). This study comprised of a pheromone standard trap, a control blank trap and seven replicated HPV ester blend #10-baited traps. The rapid-kill traps were hung six meters high on trees distributed five rows apart in a Hartley walnut orchard with a moderate codling moth population. HPV ester blend #10 was loaded on a rubber septa at approximate doses of 10 mg/septum and were replaced every 10 days, while the commercial pheromone septum was replaced monthly.
# [10] = system: codling moth; test: Sticky traps baited with the single compound or pheromone; conditions: Table 15, sticky trap
# Source text: FIG. 5 illustrates mean attraction of female and male codling moths to sticky traps baited with a single host plant volatile, ethyl (2E,4Z)-2,4-decadienoate. The attraction was followed over a two month period.
# [11] = walnut orchard, blends 10 mg/white septa, ethyl (2E,4Z)-2,4-decadienoate 5 mg
# [12] = Gray Septa, High (high population conventional orchard)
# [13] = Gray Septa, Low (low population organic orchard)
# [14] = Red Septa, High (high population conventional orchard)
# [15] = Red Septa, Low (low population organic orchard)
# [16] = 3 traps, 43 trap checks (pheromone: 1 trap, 19 trap checks)
structure (smiles),measurement,setting,value
"CCCCCC=CC=CCO [(2,4)-2,4-decadien-1-ol]",attractancy to male and female codling moth (in words),[1],very low male attractancy
CCCCCCC/C=C/COC(C)=O [(E)-2-decen-1-yl acetate],attractancy to male and female codling moth (in words),[1],most active
"C=C/C(C)=C/C/C=C(\C)CCC=C(C)C [(E,E)-α-farnesene]",Σ codling moth captured,[2]; field tests over a three month period,1
"CCCCC/C=C/C=C/C(=O)OCC [Ethyl (2E,4E)-2,4-Decadienoate]",MALE CM Captured: ♂♂/trap/night ± SEM,[3],0.24 ± 0.06 ♂♂/trap/night
same,Total CM Captured: CM/trap/night ± SEM,[3],0.77 ± 0.20 CM/trap/night
same,Female CM Captured ♀♀/trap/night ± SEM,[4],0.05 ± 0.05 ♀♀/trap/night
same,MALE CM Captured: ♂♂/trap/night ± SEM,[4],0.19 ± 0.05 ♂♂/trap/night
same,Total CM Captured: CM/trap ± SEM,[4],0.24 ± 0.10 CM/trap
"CCCCC/C=C\C=C\C(=O)OC [Methyl (2E,4Z)-2,4-Decadienoate]",FEMALE CM Captured: ♂♂/trap/night ± SEM,[3],0.41 ± 0.14 ♀♀/trap/night
same,MALE CM Captured: ♂♂/trap/night ± SEM,[3],0.12 ± 0.07 ♂♂/trap/night
same,Total CM Captured: CM/trap/night ± SEM,[3],0.54 ± 0.19 CM/trap/night
same,attractancy to male and female codling moth (in words),[1],most active
"C/C=C/C=C/CCCCCCCO [Pheromone, (E,E)-8,10-dodecadienol, reference compound]",FEMALE CM Captured with HPV; ♀♀/trap night ± SEM,[2]; [11],0.0 ♀♀/trap night
same,MALE CM Captured with HPV; ♂♂/trap/night ± SEM,[2]; [11],3.15 ± 0.98 ♂♂/trap/night
same,Total CM Captured with HPV: (CM/trap/night ± SEM),[2]; [11],3.15 ± 0.98 CM/trap/night
same,MALE CM Captured: ♂♂/trap/night ± SEM,[3],7.13 ± 1.94 ♂♂/trap/night
same,Total CM Captured: CM/trap/night ± SEM,[3],7.13 ± 1.94 CM/trap/night
same,"Male CM Captured, Pheromone Alone Trap: ± SEM",[5]; Orchard #1,0.73 ± 0.15 ♂♂/trap/night and 1.09 ± 0.27 ♂♂/trap/night and 1.04 ± 0.21 ♂♂/trap/night and 0.79 ± 0.15 ♂♂/trap/night and 1.24 ± 0.52 ♂♂/trap/night and 0.72 ± 0.13 ♂♂/trap/night
same,"Male CM Captured, Pheromone Alone Trap: ± SEM",[5]; Orchard #3,2.41 ± 0.42 ♂♂/trap/night and 2.98 ± 0.49 ♂♂/trap/night and 2.33 ± 0.41 ♂♂/trap/night and 4.40 ± 0.87 ♂♂/trap/night and 2.60 ± 0.38 ♂♂/trap/night and 3.82 ± 0.42 ♂♂/trap/night
same,Total Moths Caught: Male,"[6]; Table 10, conventional low-population Hartley walnut orchard",46
same,"Male capture, Mean ± SEM","[6]; Table 10, conventional low-population Hartley walnut orchard, 13 traps, 18 trap check dates",0.55 Moths/Night
same,Total Moths Caught:,[6]; Test 1,212
same,Mean ± SEM capture of codling moths,[6]; Test 1 (2 Reps),0.74 ± 0.13 Moths/Trap/Night
same,Total Moths Caught:,[6]; Test 2,745
same,Mean ± SEM capture of codling moths,"[6]; Test 2 (2 Reps, 50 trap checks)",2.54 ± 0.43 Moths/Trap/Night
same,♂♂ ± SEM (Ph-L2 pheromone),[7]; [12],0.08 ± 0.05
same,♂♂ ± SEM (under Ph-L2 pheromone),[7]; [12],0.05 ± 0.05
same,♂♂ ± SEM (Ph-L2 pheromone),[7]; [13],0
same,♂♂ ± SEM (under Ph-L2 pheromone),[7]; [13],1.28 ± 0.61
same,♂♂ ± SEM (Ph-L2 pheromone),[7]; [14],0.06 ± 0.06
same,♂♂ ± SEM (under Ph-L2 pheromone),[7]; [14],9.98 ± 2.94
same,♂♂ ± SEM (Ph-L2 pheromone),[7]; [15],0
same,♂♂ ± SEM (under Ph-L2 pheromone),[7]; [15],0.80 ± 0.31
same,Female Capture: Mean ± SEM,[8],0 Moths/Trap/Night
same,Female Capture: Sum:,[8],0 Moths/Trap/Night
same,Male Capture: Mean ± SEM,[8],4.96 ± 1.04 Moths/Trap/Night
same,Male Capture: Sum:,[8],94.3 Moths/Trap/Night
same,Female Capture: Sum:,[9]; Table 14,0 Moths/Trap/Night
same,Male Capture: Sum:,[9]; Table 14,18.3 Moths/Trap/Night
same,Female Capture: Mean ± SEM,"[9]; Table 14, one month",0 Moths/Trap/Night
same,Male Capture: Mean ± SEM,"[9]; Table 14, one month",3.04 ± 0.08 Moths/Trap/Night
same,Female Capture: Sum:,[10],0 Moths/Trap/Night
same,Male Capture: Sum:,[10],94.3 Moths/Trap/Night
same,Female Capture: Mean ± SEM,[10]; [16],0 Moths/Trap/Night
same,Male Capture: Mean ± SEM,[10]; [16],4.96 ± 1.04 Moths/Trap/Night
CCCCCCC/C=C/C(=O)OCC [ethyl (2E)-2-decenoate],attractancy to male and female codling moth (in words),[1],most active
"CCCCC/C=C/C=C/C(=O)OCCC [n-Propyl (2E,4E)-2,4-Decadienoate]",FEMALE CM Captured: ♂♂/trap/night ± SEM,[3],0.19 ± 0.07 ♀♀/trap/night
same,MALE CM Captured: ♂♂/trap/night ± SEM,[3],0.17 ± 0.13 ♂♂/trap/night
same,Total CM Captured: CM/trap/night ± SEM,[3],0.36 ± 0.19 CM/trap/night
"CCCCC/C=C\C=C\C(=O)OCCC [n-Propyl (2E,4Z)-2,4-Decadienoate]",FEMALE CM Captured: ♂♂/trap/night ± SEM,[3],1.12 ± 0.39 ♀♀/trap/night
same,MALE CM Captured: ♂♂/trap/night ± SEM,[3],0.49 ± 0.14 ♂♂/trap/night
same,Total CM Captured: CM/trap/night ± SEM,[3],1.61 ± 0.49 CM/trap/night
